Results as given in US20020192637A1, “Biological Sensor” (priority 1999, published 2002).

What was measured:
[1] = test system: hippocampal neuronal cell cultures; assay: Acute addition of antimicrobial agents to spontaneously active hippocampal neuronal cultures on MMEP plates; type: cell-based, rat; settings: for effect on spontaneous activity at up to 10 times the normal concentration/volume: sequential 10 μl additions up to 10 times normal; for effect on spontaneous activity (firing) of the monitored channel: acute addition (10 μl) at the concentration used routinely in tissue culture, hippocampal cultures grown 4 weeks antibiotic-free; for effect of further sequential 10 μl additions: subsequent 10 μl aliquots (penicillin G up to 100 μl at approx. 10 second intervals)
Description: Acute administration of antibiotic compounds to neuronal cell cultures: the majority of experiments involved the investigation of acute addition of a range of antibiotics to hippocampal cultures grown in antibiotic-free Neurobasal medium for 4 weeks. In each case MMEP's were screened for activity and a strong, reliable channel was selected for experimentation. Each antibiotic was tested on at least 3 individual cultures and the antibiotic addition was started at the concentration used routinely in tissue culture studies. As controls, the anti-fungal agents Nystatin and Amphotericin B (Fungizone), and the anti-mycoplasma (PPLO) agent Tylosin were also tested. In addition, the agent in which the antibiotic compound was dissolved (usually deionised water or 0.9% sodium chloride), as well as normal medium, were also tested for any effects on neuronal activity. Particular interest was paid to the effects of penicillin G, streptomycin and penicillin/streptomycin mixtures. These are routinely used in tissue culture medium and therefore any possible toxic effects are particularly relevant.

[2] = test system: P19 cell line; assay: Differentiation of P19 cell line with retinoic acid; type: cell-based, mouse; settings: retinoic acid in differentiation medium
Description: Differentiation: MEM+0.1% FBS+L-Glutamine (2 mM)+Non-essential Amino acids (1×)+30 uM retinoic acid
Neurobasal+B27+Non-essential Amino acids (1×)+L-Glutamine (2 mM)+30 uM retinoic acid
Differentiation experiments have been performed on the P19 cell line using retinoic acid. […] However, only 60-70% of the cells responded to the stimulus, such that over an extended period the non-neuronal cells proliferate vigorously and kill the neuronal cells. The use of serum-free medium has overcome this problem but cultures appear unhealthy after a period of 2 weeks.

[3] = test system: hippocampal cultures; assay: Chronic administration of antibiotics to hippocampal cultures grown over 4 weeks, neuronal network activity; type: cell-based, rat
Description: Effects of antibiotics on neuronal network activity: chronic administration of antibiotics to neuronal cell cultures. The chronic effect of antibiotics on neuronal network activity was investigated. Experiments were performed on hippocampal cultures grown in parallel, from the same cell preparation, in the presence or absence of penicillin-streptomycin or gentamycin at the recommended doses.

[4] = test system: guinea pigs; settings: high doses, administered chronically to guinea pigs; cited from earlier work

Compound: C[C@@H]1[C@H](O)[C@@H](C)/C=C/C=C/CC/C=C/C=C/C=C/C=C/C(O[C@H]2O[C@H](C)[C@@H](O)[C@H](N)[C@@H]2O)CC2O[C@](O)(CC(O)C(O)CCC(O)CC(O)CC(O)CC(=O)O[C@H]1C)CC(O)C2C(=O)O (stereo partly drawn) [Nystatin]
- effect on spontaneous activity at up to 10 times the normal concentration/volume [1]: No inhibition of activity

Compound: [H]/N=C(/N)N[C@H]1[C@H](O)[C@@H](O)[C@H](O[C@@H]2O[C@@H](C)[C@](O)(C=O)[C@H]2O[C@@H]2O[C@@H](CO)[C@H](O)[C@@H](O)[C@@H]2NC)[C@@H](N/C(N)=N\[H])[C@@H]1O [Streptomycin]
- silence before activity begins to recover ([1]; 10 μl, particularly strong (>500(V) channel, without change of medium)): approximately 30 seconds
- effect on spontaneous activity (firing) of the monitored channel [1]: immediate cessation of firing
- effect of further sequential 10 μl additions [1]: immediate interruption of activity
- effect on channel with weak activity ([1]; weak activity (<500 μV), single 10 μl addition): sufficient to inhibit activity for several minutes

Compound: CC1=C(/C=C/C(C)=C/C=C/C(C)=C/C(=O)O)C(C)(C)CCC1 [retinoic acid]
- proportion of cells that responded to the stimulus [2]: 60-70%

Compound: Gentamicin
- effect on spontaneous activity (firing) of the monitored channel [1]: cessation of neuronal activity
- reversibility of inhibition ([1]; complete medium change within the MMEP culture apparatus): reversed by a complete medium change
- long-term effect indicated by poor frequency of activity detection ([3]; cultures grown for several weeks in the presence of the antibiotic): toxic effect
- effect on neuronal network activity after chronic presence ([3]; recommended doses, grown over a 4-week period): almost complete cessation of activity
- effect on neuronal cytoarchitecture [4]: major structural changes in neuronal cytoarchitecture

Compound: CC[C@H]1OC(=O)C[C@@H](O)[C@H](C)[C@@H](O[C@@H]2O[C@H](C)[C@@H](O[C@H]3C[C@@](C)(O)[C@@H](O)[C@H](C)O3)[C@H](N(C)C)[C@H]2O)[C@@H](CC=O)C[C@@H](C)C(=O)/C=C/C(C)=C/[C@@H]1CO[C@@H]1O[C@H](C)[C@@H](O)[C@@H](OC)[C@H]1OC [Tylosin]
- effect on spontaneous activity at up to 10 times the normal concentration/volume [1]: No inhibition of activity

Compound: CC1(C)S[C@@H]2[C@H](NC(=O)Cc3ccccc3)C(=O)N2[C@H]1C(=O)O [Penicillin G]
- effect on spontaneous activity (firing) of the monitored channel [1]: immediate increase in the firing rate
- effect on spike amplitude ([1]; acute addition of 10 μl): small associated decrease in the amplitude
- effect on spontaneous activity at up to 10 times the normal concentration/volume [1]: initial acceleration of the firing rate, with an accompanied reduction in spike amplitude
- effect of further sequential 10 μl additions [1]: further decrease in the amplitude with eventual slowing of the firing rate

Compound: C[C@@H]1[C@H](O)[C@@H](C)/C=C/C=C/C=C/C=C/C=C/C=C/C=C/[C@H](O[C@@H]2O[C@H](C)[C@@H](O)[C@H](N)[C@@H]2O)C[C@@H]2O[C@](O)(C[C@@H](O)C[C@@H](O)[C@H](O)CC[C@@H](O)C[C@@H](O)CC(=O)O[C@H]1C)C[C@H](O)[C@H]2C(=O)O [amphotericin B, Amphotericin B]
- effect on spontaneous activity at up to 10 times the normal concentration/volume [1]: No inhibition of activity

Compound: Polymyxin ‘B’
- effect on spontaneous activity (firing) of the monitored channel [1]: inhibition of activity
